This experiment addresses T1, Aβ42 aggregate (Homo sapiens, UniProt P05067).
T1 construct: Aβ (1-42) peptide; purchased Peptide Institute, Inc
Kind of experiment: Evaluation experiment of binding to amyloid β (filter radioactivity). To be noted: Aβ42 aggregate 30 nmol/L, incubation 3 hours. The protocol: 0.5 mg of Aβ (1-42) peptide (purchased from Peptide Institute, Inc.) was dissolved in 2 mL of a PBS buffer containing 1 mmol/L of EDTA and incubated at 37° C. for 42 hours, thus preparing an Aβ42 aggregate. A glass tube was charged with a 10 vol % ethanol aqueous solution (900 μL), Aβ42 aggregate (50 μL, final concentration 30 nmol/L), and radioactive iodine-labeled compound 1, radioactive iodine-labeled compound 2, or radioactive iodine-labeled compound 3 (each 50 μL, 0.018-0.097 μCi), and incubation was carried out for 3 hours. B/F separation was carried out using a cell harvester (Brandel, M-24), and the radioactivity on the filter was measured in a γ counter. The proportion (%) of the radioactivity count on the filter relative to the radioactivity count of each sample used was determined, and binding of each compound to the Aβ42 aggregate was evaluated.
As a control, 4-dimethylamino-4′-iodochalcone (hereinafter, called a chalcone derivative) was prepared in accordance with a method described in the literature (Ono et al., Bioorg Med Chem, 15, 6802-6809, 2007), and the same experiment was carried out (radioactivity count in sample: […]-0.37 kBq (0.023-0.01 μCi)).

T1 sequence (P05067 672-713 limits assumed): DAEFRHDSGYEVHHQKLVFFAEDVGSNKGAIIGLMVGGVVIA

For the compound `CN(C)c1ccc(/C=C/C(=O)c2ccc(I)cc2)cc1` [chalcone derivative, 4-dimethylamino-4′-iodochalcone, reference compound], the “Binding to the Aβ42 aggregate (proportion of radioactivity count on the filter)” value is “exhibited binding to the Aβ42 aggregate”.

(Values after US8476449B2, “Radioactive iodine labeled organic compound or salt thereof” (Nihon Medi-Physics Co., Ltd., priority 2010, dated 2013).)
